# Literature values in patent publication US20240122968A1, “ENHANCED NITRATE COMPOSITIONS AND METHODS OF USE” (ThermoLife International, LLC, priority 2019, published 2024).
# Where two headings read alike, the source gives them in different places.
# Test system: blood pressure
Structure (SMILES),effect on blood pressure (even at doses of 1.5 g per day (Weinberger et al.)),effect on blood pressure (high doses)
[Ca+2] [calcium],no notable effects on blood pressure,
[Zn] [Zinc],,increase blood pressure
